# From PubChem BioAssay (NCI)
#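 1) Cells in 96-well plates. 2) Compound, 48 h, 5 concentrations. 3) Linear interpolation between surrounding doses. 4) Unreached endpoint = highest concentration. TGI marks complete inhibition of growth.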
# Experiments:
# Test in all cases: NCI tumour cell line growth inhibition, 48 h
# [1] = system: 786-0 renal
# [2] = system: MDA-N
# [3] = system: SN12C renal
# [4] = system: ACHN renal
# [5] = system: PC-3 prostate
# [6] = system: RPMI-8226 leukemia
# [7] = system: HOP-92 NSCLC
# [8] = system: SK-MEL-28 melanoma
# [9] = system: SK-MEL-2 melanoma
# [10] = system: COLO 205 colon
# [11] = system: MDA-MB-231 breast
# [12] = system: SF-539 CNS
# [13] = system: HCT-116 colon
# [14] = system: SK-OV-3 ovarian
# [15] = system: NCI-H226 lung
# [16] = system: KM12 colon
# [17] = system: NCI-H23 lung
# [18] = system: CAKI-1 renal
# [19] = system: M14 melanoma
# [20] = system: LOX IMVI melanoma
# [21] = system: OVCAR-3 ovarian
# [22] = system: SF-268 CNS
# [23] = system: A498 renal
# [24] = system: RXF 393 renal
# [25] = system: NCI-H460 lung
# [26] = system: HOP-62 NSCLC
# [27] = system: UACC-62 melanoma
# [28] = system: MALME-3M melanoma
# [29] = system: HCT-15 colon
# [30] = system: SW-620 colon
# [31] = system: MOLT-4 leukemia
# [32] = system: OVCAR-4 ovarian
# [33] = system: K-562 leukemia
# [34] = system: EKVX NSCLC
# [35] = system: NCI-H522 lung
# [36] = system: SF-295 CNS
# [37] = system: OVCAR-5 ovarian
# [38] = system: A549 NSCLC
# [39] = system: SK-MEL-5 melanoma
# [40] = system: NCI/ADR-RES ovarian
# [41] = system: HCC-2998 colon
# [42] = system: CCRF-CEM leukemia
# [43] = system: U251 CNS
# [44] = system: SNB-19 CNS
# [45] = system: UACC-257 melanoma
# [46] = system: TK-10 renal
# [47] = system: DU-145 prostate
# [48] = system: MCF7 breast
# [49] = system: MDA-MB-435
# [50] = system: UO-31 renal
# [51] = system: SR leukemia
# [52] = system: HT29 colon
# [53] = system: HL-60(TB) leukemia
# [54] = system: BT-549 breast
# [55] = system: IGROV1 ovarian
compound,measurement,setting,value
CN(C)CC1CN=C(N)O1 (centres undefined),TGI,[1],> 100 µM
same,TGI,[2],> 100 µM
same,TGI,[3],> 100 µM
same,TGI,[4],> 100 µM
same,TGI,[5],> 100 µM
same,TGI,[6],> 100 µM
same,TGI,[7],> 100 µM
same,TGI,[8],> 100 µM
same,TGI,[9],> 100 µM
same,TGI,[10],> 100 µM
same,TGI,[11],> 100 µM
same,TGI,[12],> 100 µM
same,TGI,[13],> 100 µM
same,TGI,[14],> 100 µM
same,TGI,[15],> 100 µM
same,TGI,[16],> 100 µM
same,TGI,[17],> 100 µM
same,TGI,[18],> 100 µM
same,TGI,[19],> 100 µM
same,TGI,[20],> 100 µM
same,TGI,[21],> 100 µM
same,TGI,[22],> 100 µM
same,TGI,[23],> 100 µM
same,TGI,[24],> 100 µM
same,TGI,[25],> 100 µM
same,TGI,[26],> 100 µM
same,TGI,[27],> 100 µM
same,TGI,[28],> 100 µM
same,TGI,[29],> 100 µM
same,TGI,[30],> 100 µM
same,TGI,[31],> 100 µM
same,TGI,[32],> 100 µM
same,TGI,[33],> 100 µM
same,TGI,[34],> 100 µM
same,TGI,[35],> 100 µM
same,TGI,[36],> 100 µM
same,TGI,[37],> 100 µM
same,TGI,[38],> 100 µM
same,TGI,[39],> 100 µM
same,TGI,[40],> 100 µM
same,TGI,[41],> 100 µM
same,TGI,[42],> 100 µM
same,TGI,[43],> 100 µM
same,TGI,[44],> 100 µM
same,TGI,[45],> 100 µM
same,TGI,[46],> 100 µM
same,TGI,[47],> 100 µM
same,TGI,[48],> 100 µM
same,TGI,[49],> 100 µM
same,TGI,[50],> 100 µM
CC(=O)O/C=C1/C[C@H]2[C@@H]3CCC4CC(C(C)=O)CC[C@]4(C)[C@H]3CC[C@]2(C)C1=O (some centres undefined),TGI,[1],> 100 µM
same,TGI,[2],> 100 µM
same,TGI,[51],> 100 µM
same,TGI,[3],> 100 µM
same,TGI,[4],> 100 µM
same,TGI,[5],> 100 µM
same,TGI,[7],> 100 µM
same,TGI,[8],> 100 µM
same,TGI,[9],> 100 µM
same,TGI,[11],> 100 µM
same,TGI,[13],> 100 µM
same,TGI,[14],> 100 µM
same,TGI,[15],> 100 µM
same,TGI,[16],93.3 µM
same,TGI,[17],> 100 µM
same,TGI,[18],> 100 µM
same,TGI,[20],> 100 µM
same,TGI,[21],97.3 µM
same,TGI,[22],> 100 µM
same,TGI,[23],> 100 µM
same,TGI,[24],> 100 µM
same,TGI,[25],> 100 µM
same,TGI,[26],> 100 µM
same,TGI,[27],> 100 µM
same,TGI,[28],> 100 µM
same,TGI,[29],> 100 µM
same,TGI,[30],> 100 µM
same,TGI,[31],> 100 µM
same,TGI,[32],> 100 µM
same,TGI,[33],> 100 µM
same,TGI,[34],> 100 µM
same,TGI,[52],> 100 µM
same,TGI,[35],> 100 µM
same,TGI,[36],> 100 µM
same,TGI,[53],37.2 µM
same,TGI,[37],> 100 µM
same,TGI,[54],> 100 µM
same,TGI,[39],> 100 µM
same,TGI,[41],> 100 µM
same,TGI,[42],> 100 µM
same,TGI,[43],> 100 µM
same,TGI,[44],> 100 µM
same,TGI,[45],> 100 µM
same,TGI,[46],> 100 µM
same,TGI,[55],> 100 µM
same,TGI,[47],> 100 µM
same,TGI,[48],> 100 µM
same,TGI,[49],> 100 µM
same,TGI,[50],> 100 µM
